Here are results for seven compounds from ChEMBL document CHEMBL3045064, “3D-QSAR of amino-substituted pyrido[3,2B]pyrazinones as PDE-5 inhibitors” (Med Chem Res, 2012).

Broadly, the IC50 is the point on the concentration scale where inhibition reaches its midpoint. Low readings indicate inhibition by little substance, high ones a need for much substance.

This test addresses cGMP-specific 3',5'-cyclic phosphodiesterase (Homo sapiens, UniProt O76074). Briefly: Inhibition of PDE5 (unknown origin).
As for `O=c1c(NCC2CCOCC2)nc2ccc(-c3cnc(O)nc3)nc2n1CC1CCCCC1`, the half-maximal inhibitory concentration (IC50) is 2.88 nM.

Regarding `O=c1c(NCCN2CCOCC2)nc2ccc(-c3ccc(O)nc3)nc2n1CC1CCCCC1`, the IC50 was 537 nM.

`Cc1noc(C)c1-c1ccc2nc(NCCN3CCOCC3)c(=O)n(CC3CCCCC3)c2n1` showed a half-maximal inhibitory concentration (IC50) of 36.3 nM.

As for `COc1ccc(-c2ccc3nc(NCCN4CCOCC4)c(=O)n(CC4CCCCC4)c3n2)cn1`, the IC50 is 26.9 nM.

Take `COc1ccc(-c2ccc3nc(NCC4CCOCC4)c(=O)n(CC4CCCCC4)c3n2)cn1`: the midpoint of inhibition, the IC50, lay at 2.29 nM.

Take `COc1ccc(-c2ccc3nc(NCC(=O)N(C)C)c(=O)n(CC4CCCCC4)c3n2)cn1`: the concentration for half-maximal inhibition (IC50) is 14.5 nM.

The compound `O=c1c(NCC2CCOCC2)nc2ccc(-c3ccncc3)nc2n1CC1CCCCC1` had a half-maximal inhibitory concentration (IC50) of 33.9 nM.
